Assay results from ChEMBL document CHEMBL1201862, “PubChem BioAssay data set” (2004).
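A five-concentration, 48-hour dose response in 96-well plates underlies each endpoint, interpolated linearly between surrounding concentrations. GI50 = concentration required for 50% inhibition of growth.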 Calls of active or inactive are those of the source. Rule as the data show it: active = GI50 up to about 1.1 µM and inactive = higher. Where a SMILES comes first, the peptide text is derived from it. The star is where a group is joined. Boc = CC(C)(C)OC(=O)*

Key:
Assay in all cases: NCI tumour cell line growth inhibition, 48 h
SK-MEL-2 = tested on: SK-MEL-2
SF-295 = tested on: SF-295
NCI/ADR-RES = tested on: NCI/ADR-RES
HOP-62 = tested on: HOP-62
NCI-H522 = tested on: NCI-H522
TK-10 = tested on: TK-10
UACC-257 = tested on: UACC-257
Malme-3M = tested on: Malme-3M
HCT-116 = tested on: HCT-116
NCI-H226 = tested on: NCI-H226
HT-29 = tested on: HT-29
HOP-92 = tested on: HOP-92
LOX IMVI = tested on: LOX IMVI
SW-620 = tested on: SW-620
HCT-15 = tested on: HCT-15
DU-145 = tested on: DU-145
UO-31 = tested on: UO-31
SF-539 = tested on: SF-539
SNB-75 = tested on: SNB-75
SK-MEL-28 = tested on: SK-MEL-28

SMILES | GI50 (SK-MEL-2) | GI50 (SF-295) | GI50 (NCI/ADR-RES) | GI50 (HOP-62) | GI50 (NCI-H522) | GI50 (TK-10) | GI50 (UACC-257) | GI50 (Malme-3M) | GI50 (HCT-116) | GI50 (NCI-H226) | GI50 (HT-29) | GI50 (HOP-92) | GI50 (LOX IMVI) | GI50 (SW-620) | GI50 (HCT-15) [µM] | GI50 (DU-145) | GI50 (UO-31) | GI50 (SF-539) | GI50 (SNB-75) | GI50 (SK-MEL-28)
c1ccc2c(c1)C(=Nc1ccc(N=C3c4ccccc4-c4ccccc43)cc1)c1ccccc1-2 | > 100 µM (inactive) | > 100 µM (inactive) | > 100 µM (inactive) | > 100 µM (inactive) | > 100 µM (inactive) | > 100 µM (inactive) | > 100 µM (inactive) | > 100 µM (inactive) | > 100 µM (inactive) | > 100 µM (inactive) | > 100 µM (inactive) | > 100 µM (inactive) | > 100 µM (inactive) | > 100 µM (inactive) | > 100 | > 100 µM (inactive) | > 100 µM (inactive) | – | – | –
CC#CC(O)(C(=O)OC1CCC2CCC1N2C)C1CCCC1 (stereo not given) | – | > 100 µM (inactive) | > 10 µM (inactive) | > 100 µM (inactive) | > 100 µM (inactive) | > 100 µM (inactive) | > 100 µM (inactive) | > 100 µM (inactive) | > 100 µM (inactive) | > 100 µM (inactive) | > 100 µM (inactive) | – | > 100 µM (inactive) | > 100 µM (inactive) | > 100 | > 100 µM (inactive) | > 100 µM (inactive) | > 100 µM (inactive) | > 100 µM (inactive) | > 100 µM (inactive)
O=C1c2ccccc2C(=O)C1C(c1ccc([N+](=O)[O-])cc1)C1C(=O)c2ccccc2C1=O | 91 µM (inactive) | > 100 µM (inactive) | – | 34.8 µM (inactive) | 63.4 µM (inactive) | > 100 µM (inactive) | 33.7 µM (inactive) | > 100 µM (inactive) | 24.3 µM (inactive) | 59.7 µM (inactive) | > 100 µM (inactive) | 36.2 µM (inactive) | 18 µM (inactive) | 17.9 µM (inactive) | 63.1 | – | 44.7 µM (inactive) | 73.8 µM (inactive) | 38.6 µM (inactive) | 29 µM (inactive)
COc1ccc(C2SC(=N)Nc3c2c(C)nn3C(=O)c2ccccc2O)cc1 (stereo not given) | 2.57 µM (inactive) | 3.98 µM (inactive) | 2.12 µM (inactive) | 2.77 µM (inactive) | 3.85 µM (inactive) | – | 2.81 µM (inactive) | 0.659 µM (active) | 0.655 µM (active) | 0.904 µM (active) | 5.11 µM (inactive) | > 10 µM (inactive) | 3.6 µM (inactive) | 5.47 µM (inactive) | 4.58 | – | – | 0.27 µM (active) | 0.308 µM (active) | > 10 µM (inactive)
COC(=O)CCc1ccc2c(c1)CC1(C2)Cc2ccc(CCC(=O)OC)cc2C1 | > 100 µM (inactive) | 78 µM (inactive) | > 100 µM (inactive) | 62.7 µM (inactive) | 34.5 µM (inactive) | > 100 µM (inactive) | > 100 µM (inactive) | 63.1 µM (inactive) | > 100 µM (inactive) | 38.8 µM (inactive) | 62.7 µM (inactive) | 35.4 µM (inactive) | 26.6 µM (inactive) | – | > 100 | – | > 100 µM (inactive) | > 100 µM (inactive) | < 0.01 µM (active) | –
CC1=C(C)C(=O)OC(C(C)(O)C2(O)CCC3(O)C4CC(Cl)C5(O)C(O)C=CC(=O)C5(C)C4CCC32C)C1 (stereo not given) | > 100 µM (inactive) | 30.3 µM (inactive) | – | > 100 µM (inactive) | 10.8 µM (inactive) | 34.3 µM (inactive) | 37.2 µM (inactive) | > 100 µM (inactive) | 19.1 µM (inactive) | > 100 µM (inactive) | 15.9 µM (inactive) | > 100 µM (inactive) | 14.9 µM (inactive) | 21.3 µM (inactive) | 28.7 | > 100 µM (inactive) | 15.6 µM (inactive) | 28.2 µM (inactive) | 4.25 µM (inactive) | 49 µM (inactive)
COC(c1ccc(C(C)(C)C)cc1)(c1ccc(C(C)(C)C)cc1)c1ccc(C(C)(C)C)cc1 | > 100 µM (inactive) | > 100 µM (inactive) | > 100 µM (inactive) | > 100 µM (inactive) | > 100 µM (inactive) | > 100 µM (inactive) | – | > 100 µM (inactive) | > 100 µM (inactive) | > 100 µM (inactive) | > 100 µM (inactive) | – | > 100 µM (inactive) | > 100 µM (inactive) | > 100 | > 100 µM (inactive) | > 100 µM (inactive) | > 100 µM (inactive) | > 100 µM (inactive) | > 100 µM (inactive)
O=C(CCc1nnc(S)[nH]1)Nc1ccccc1Cl | > 100 µM (inactive) | > 100 µM (inactive) | – | > 100 µM (inactive) | > 100 µM (inactive) | > 100 µM (inactive) | > 100 µM (inactive) | > 100 µM (inactive) | > 100 µM (inactive) | > 100 µM (inactive) | > 100 µM (inactive) | > 100 µM (inactive) | > 100 µM (inactive) | 18.2 µM (inactive) | 20.2 | – | > 100 µM (inactive) | > 100 µM (inactive) | > 100 µM (inactive) | > 100 µM (inactive)
Cc1cccc(N2C(=O)C3c4[nH]c5ccccc5c4C4CCC(C(C)(C)C)CC4C3C2=O)c1 (stereo not given) | 18.2 µM (inactive) | 9.29 µM (inactive) | 15.7 µM (inactive) | 3.54 µM (inactive) | 11.1 µM (inactive) | 14.2 µM (inactive) | 18.7 µM (inactive) | 13 µM (inactive) | 9.29 µM (inactive) | 18.7 µM (inactive) | 13.5 µM (inactive) | – | 3.32 µM (inactive) | 11.8 µM (inactive) | 29.4 | 12.4 µM (inactive) | 15.3 µM (inactive) | – | – | 16.3 µM (inactive)
O=C(O)CCCCCOc1cccnc1/C=N/NC1=NCCN1 | > 100 µM (inactive) | > 100 µM (inactive) | – | > 100 µM (inactive) | > 100 µM (inactive) | > 100 µM (inactive) | > 100 µM (inactive) | > 100 µM (inactive) | > 100 µM (inactive) | > 100 µM (inactive) | > 100 µM (inactive) | > 100 µM (inactive) | > 100 µM (inactive) | > 100 µM (inactive) | > 100 | – | > 100 µM (inactive) | > 100 µM (inactive) | 20.7 µM (inactive) | > 100 µM (inactive)
O=C1Oc2ccccc2C(=O)/C1=C/N1C(=O)/C(=C/c2ccc3c(c2)OCO3)SC1=S | 17.2 µM (inactive) | 22.9 µM (inactive) | 18.5 µM (inactive) | 14.6 µM (inactive) | 15.8 µM (inactive) | – | 24.3 µM (inactive) | 19.8 µM (inactive) | 33.7 µM (inactive) | 11.5 µM (inactive) | 21.2 µM (inactive) | – | 33.3 µM (inactive) | 22.8 µM (inactive) | 15.8 | 19.1 µM (inactive) | – | 11.5 µM (inactive) | 11.1 µM (inactive) | 17.3 µM (inactive)
CCc1n[nH]c(=O)n1N1C(=O)C2CC=CCC2C1=O (stereo not given) | > 100 µM (inactive) | > 100 µM (inactive) | > 100 µM (inactive) | > 100 µM (inactive) | > 100 µM (inactive) | > 100 µM (inactive) | > 100 µM (inactive) | > 100 µM (inactive) | > 100 µM (inactive) | > 100 µM (inactive) | > 100 µM (inactive) | > 100 µM (inactive) | > 100 µM (inactive) | > 100 µM (inactive) | > 100 | – | > 100 µM (inactive) | > 100 µM (inactive) | 39.1 µM (inactive) | –
CC(=O)OCC1OC(OC2CC3C(C)(C)C(OC(C)=O)CC[C@]3(C)C3CCC45CC4(CC[C@H]5C(C)CC(O)[C@@H](O)C(C)(C)O)[C@]23C)C(O)C(O)C1O (stereo not given in full) | 9.38 µM (inactive) | 7.93 µM (inactive) | – | 5.86 µM (inactive) | 1.82 µM (inactive) | 7.76 µM (inactive) | 7.53 µM (inactive) | 7.69 µM (inactive) | 7.64 µM (inactive) | 7.18 µM (inactive) | 8.05 µM (inactive) | 7.01 µM (inactive) | 6.95 µM (inactive) | 7.69 µM (inactive) | 7.64 | – | 6.38 µM (inactive) | 7.31 µM (inactive) | 6.18 µM (inactive) | 7.4 µM (inactive)
COc1cc(CC2CCc3nc(N)nc(N)c3C2)cc(OC)c1OC (stereo not given) | > 38.1 µM (inactive) | 0.21 µM (active) | – | 2.05 µM (inactive) | 0.505 µM (active) | > 45.7 µM (inactive) | 24.8 µM (inactive) | 0.851 µM (active) | 0.0457 µM (active) | > 24.3 µM (inactive) | > 34.8 µM (inactive) | 26.5 µM (inactive) | 0.0798 µM (active) | 0.914 µM (active) | 0.0925 | 1.79 µM (inactive) | – | 0.966 µM (active) | 1.55 µM (inactive) | > 36.5 µM (inactive)
CC(C)(C)OC(=O)NCC(=O)NCC(=O)NCC(=O)NCC(=O)O (Boc-GGGG-OH) | – | > 100 µM (inactive) | > 100 µM (inactive) | > 100 µM (inactive) | > 100 µM (inactive) | > 100 µM (inactive) | > 100 µM (inactive) | > 100 µM (inactive) | > 100 µM (inactive) | – | > 100 µM (inactive) | > 100 µM (inactive) | > 100 µM (inactive) | > 100 µM (inactive) | > 100 | > 100 µM (inactive) | > 100 µM (inactive) | > 100 µM (inactive) | – | > 100 µM (inactive)
